Results: patent publication US9302996B2, “Continuous arycyclic compound” (MITSUBISHI TANABE PHARMA CORPORATION, priority 2010, dated 2016)
Like-named read-outs stand apart in the source and are kept apart here.

How the values were obtained:
Format in all cases: in vivo
ICR mice = assay: Triglyceride (TG) in blood plasma increase-inhibiting action due to lipid administration; conditions: Mus musculus; male ICR mice, 5 mg/kg oral, lipid (Intralipos 20%) after 30 minutes, plasma TG 2 hours after lipid; read-out: Inhibiting rate of TG-increase in blood plasma (5 mg/kg)
How it was run: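 Male ICR mice (6–9 weeks), fasted overnight, dosed orally with compound in 0.2% CMC; oral lipid emulsion (10 mL/kg) 30 min later. Plasma TG from tail vein before and 2 h after lipid load; rise in TG expressed as percent inhibition versus vehicle group.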

C57BL/6J mice = assay: Antifeeding activity (high fat diet intake up to 4 hours); conditions: Mus musculus, male C57BL/6J mice, 5 mg/kg oral, food ingested up to 4 hours, read-out: Antifeeding rate (5 mg/kg)
KK-Ay mice = assay: Weight gain-inhibiting action, hypoglycemic effect, insulin in blood plasma lowering action in KK-Ay mice; conditions: Mus musculus, 336 h, male KK-Ay mice, high fat diet, 30 mg/kg/day oral, 2 weeks
Method: To 8 weeks-old male KK-Ay mice were provided high fat diet (Oriental Yeast Co., Ltd, 60 cal % fat), and Test compound suspended in 0.2% carboxymethylcellulose solution was orally administered once a day. Oral administration was continued for 2 weeks, and a weight gain-inhibiting rate of the Test compound was calculated by using a weight gain amount of the solvent control group during the test period as 100%. After final administration, the mice were fasted overnight, and blood was collected from tail vein. Measurement of a blood-sugar level was carried out by using glucose Cα Test Wako (Wako Pure Chemical Industries, Ltd.), and measurement of insulin in blood plasma was carried out by using a mouse insulin measurement kit (Morinaga Institute of Biological Science, Inc.).

[1] = read-out: Hypoglycemic action (30 mg/kg/day)
[2] = read-out: Insulin in blood plasma-lowering action (30 mg/kg/day)
[3] = read-out: Weight gain-inhibiting action (30 mg/kg/day)

Structure (SMILES) | inhibition in vivo at 5 mg/kg (ICR mice) [%] | inhibition in vivo at 5 mg/kg (C57BL/6J mice) [%] | inhibition in vivo at 30 mg/kg (KK-Ay mice; [1]) [%] | inhibition in vivo at 30 mg/kg (KK-Ay mice; [2]) [%] | inhibition in vivo at 30 mg/kg (KK-Ay mice; [3]) [%]
Cc1cc(OCC2(C(=O)O)CCC2)ccc1-c1ccc(-c2ncc(C(F)(F)F)[nH]2)cn1 [Example 70] | 67 | 59 | 52 | 27 | 45
Cc1cc(OCC(C)(C)C(=O)O)ncc1-c1ccc(-c2ncc(C(F)(F)F)[nH]2)cn1 [Example 72] | 85 | 65 | 38 | 28 | 43
Cc1cc(OCC(C)(C)C(=O)O)ncc1-c1ccc(-c2ncc(C(F)(F)F)[nH]2)cc1 [Example 73] | 88 | 82 | 40 | 69 | 62
Cc1nc(OCC(C)(C)C(=O)O)ccc1-c1ccc(-c2ncc(C(F)(F)F)[nH]2)cc1 [Example 74] | 50 | 60 | 56 | 51 | 47
CC(C)(COc1ccc(-c2ccc(-c3ncc(C(F)(F)F)[nH]3)c(F)c2)cn1)C(=O)O [Example 76] | 78 | 61 | 65 | 81 | 69
Cc1cc(OCC(C)(C)C(=O)O)ncc1-c1ccc(-c2ncc(C(F)(F)F)[nH]2)c(C)c1 [Example 77] | 75 | 65 | 60 | 65 | –
CC(C)(COc1ncc(-c2ccc(-c3ncc(C(F)(F)F)[nH]3)c(F)c2)cc1F)C(=O)O [Example 84] | 75 | 64 | 65 | 76 | 48
CC(C)(COc1ccc(-c2ccc(-c3ncc(C(F)(F)F)[nH]3)nn2)cc1)C(=O)O [Example 87-7), 2,2-dimethyl-3-(4-{6-[4-(trifluoromethyl)-1H-imidazol-2-yl]pyridazin-3-yl}phenoxy)-propanoic acid] | 57 | 59 | 35 | 19 | 22
CC(C)(COc1cnc(-c2ccc(-c3nc(C(F)(F)F)c[nH]3)cc2)cn1)C(=O)O [Example 89-2), 2,2-dimethyl-3-[(5-{4-[4-(trifluoromethyl)-1H-imidazol-2-yl]phenyl}pyrazin-2-yl)oxy]-propanoic acid] | 52 | 75 | 68 | 88 | 63
CC(C)(COc1cnc(-c2ccc(-c3ncc(C(F)(F)F)[nH]3)nc2)cn1)C(=O)O [Example 92] | 74 | 66 | 63 | 58 | 60
Cc1cc(OCC(C)(C)C(=O)O)ncc1-c1cnc(-c2ncc(C(F)(F)F)[nH]2)cn1 [Example 95-6), 2,2-dimethyl-3-[(4-methyl-5-{5-[5-(trifluoromethyl)-1H-imidazol-2-yl]pyrazin-2-yl}pyridin-2-yl)oxy]propanoic acid] | 70 | 83 | 66 | 58 | 75
Cc1cc(OCC(C)(C)C(=O)O)ncc1-c1ccc(-c2ncc(CC3CC3)[nH]2)c(F)c1 [Example 96-2), 3-[(5-{4-[5-(cyclopropylmethyl)-1H-imidazol-2-yl]-3-fluorophenyl}-4-methylpyridin-2-yl)oxy]-2,2-dimethylpropanoic acid] | 48 | 58 | 66 | 71 | 75
Cc1cc(OCC(C)(C)C(=O)O)ncc1-c1cnc(-c2ncc(C(F)(F)F)[nH]2)c(F)c1 [Example 107] | 62 | 57 | 57 | 58 | 48
Cc1cc(OCC(C)(C)C(=O)O)ncc1-c1cnc(-c2ncc(C(F)(F)F)[nH]2)c(Cl)c1 [Example 112] | 67 | 52 | 49 | 61 | 47
Cc1cc(OCC(C)(C)C(=O)O)ncc1-c1cnc(-c2ncc(C(F)(F)F)[nH]2)c(C)c1 [Example 114] | 64 | 59 | 48 | 60 | 45
Cc1cc(OCC(C)(C)C(=O)O)ncc1-c1ccc(-c2ncc(CC(C)C)[nH]2)nc1 [Example 117] | 57 | 55 | 36 | 35 | 31
Cc1cc(OCC(C)(C)C(=O)O)ncc1-c1ccc(-c2ncc(CC(C)C)[nH]2)c(F)c1 [Example 119] | 67 | 51 | 40 | 28 | 36
